The results in this text go back to PubChem BioAssay AID330 (DTP/NCI, 2004).

Where “and” joins values, the source holds several entries; their conditions need not be identical. Identical values can stand only once. Toxic doses and inconclusive results are not listed.

The test deals with P388 leukemia ip, CD2F1 mice, survival T/C. Description: NCI In Vivo Anticancer Drug Screen. Data for tumor model P388 Leukemia (intraperitoneal) in CD2F1 (CDF1) mice. Conditions: endpoint: median survival time, higher = longer survival. Summed up: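 Mice carrying the transplanted tumor received test compound or vehicle. Survival was recorded in each group, and the value is the treated-group measurement divided by that of the vehicle-treated control group.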

The mark [1] stands for this setting: dose: 50.0 mg/kg/injection, schedule: Q04DX003 (ip), vehicle: saline.
[2] abbreviates: dose: 100.0 mg/kg/injection, schedule: Q04DX003 (ip), vehicle: saline.
The mark [3] stands for this setting: dose: 50.0 mg/kg/injection, schedule: Q01DX009 (ip), vehicle: other.
Where [4] appears, read: dose: 60.0 mg/kg/injection, schedule: Q01DX005 (ip), vehicle: Klucel (hydroxypropylcellulose) (HPC).
The mark [5] stands for this setting: dose: 120.0 mg/kg/injection, schedule: Q01DX005 (ip), vehicle: Klucel (hydroxypropylcellulose) (HPC).
Where [6] appears, read: dose: 50.0 mg/kg/injection, schedule: Q01DX005 (ip), vehicle: Klucel (hydroxypropylcellulose) (HPC).
Where [7] appears, read: dose: 100.0 mg/kg/injection, schedule: Q01DX005 (ip), vehicle: Klucel (hydroxypropylcellulose) (HPC).
The mark [8] stands for this setting: dose: 50.0 mg/kg/injection, schedule: Q01DX005 (ip), vehicle: saline with Tween-80.
Where [9] appears, read: dose: 100.0 mg/kg/injection, schedule: Q01DX005 (ip), vehicle: saline with Tween-80.
[10] abbreviates: dose: 200.0 mg/kg/injection, schedule: Q01DX005 (ip), vehicle: saline with Tween-80.
[11] abbreviates: dose: 50.0 mg/kg/injection, schedule: Q01DX005 (ip), vehicle: saline.
The mark [12] stands for this setting: dose: 100.0 mg/kg/injection, schedule: Q01DX005 (ip), vehicle: saline.
Where [13] appears, read: dose: 200.0 mg/kg/injection, schedule: Q01DX005 (ip), vehicle: saline.
Where [14] appears, read: dose: 50.0 mg/kg/injection, schedule: Q01DX009 (ip), vehicle: Klucel (hydroxypropylcellulose) (HPC).
[15] abbreviates: dose: 100.0 mg/kg/injection, schedule: Q01DX009 (ip), vehicle: Klucel (hydroxypropylcellulose) (HPC).
Setting [16] is: dose: 200.0 mg/kg/injection, schedule: Q01DX009 (ip), vehicle: Klucel (hydroxypropylcellulose) (HPC).

Turning to `Cc1ccc(S(=O)(=O)OCCN(CCOS(=O)(=O)c2ccc(C)cc2)c2ccc(F)cc2)cc1`, the T/C was 104 % of control (dose: 0.63 mg/kg/injection, schedule: Q01DX009 (ip), vehicle: other); 118 % of control (dose: 1.25 mg/kg/injection, schedule: Q01DX009 (ip), vehicle: other); 150 % of control (dose: 5.0 mg/kg/injection, schedule: Q01DX009 (ip), vehicle: other).
Consider `CCOC1OCN(C)CC1(C)C` (stereo not given), for which the T/C is 109 % of control under setting [1]; 150 % of control (dose: 100.0 mg/kg/injection, schedule: Q01DX009 (ip), vehicle: saline); 113 % of control under setting [2]; 109 % of control (dose: 200.0 mg/kg/injection, schedule: Q04DX003 (ip), vehicle: saline).
On to `Nc1ccc(Br)cc1N`, for which the T/C (dose: 50.0 mg/kg/injection, schedule: Q01DX009 (ip), vehicle: distilled water + Tween-80 + alcohol) was 111 % of control; the T/C under setting [3] was 100 % of control; the T/C (dose: 50.0 mg/kg/injection, schedule: Q01DX009 (ip), vehicle: saline + Tween-80 + alcohol) was 95 % of control; the T/C (dose: 100.0 mg/kg/injection, schedule: Q01DX009 (ip), vehicle: distilled water + Tween-80 + alcohol) is 120 % of control; the T/C (dose: 100.0 mg/kg/injection, schedule: Q01DX009 (ip), vehicle: other) was 98 % of control; the T/C (dose: 100.0 mg/kg/injection, schedule: Q01DX009 (ip), vehicle: saline + Tween-80 + alcohol) is 107 % of control. The T/C is 150 % of control (dose: 200.0 mg/kg/injection, schedule: Q01DX009 (ip), vehicle: distilled water + Tween-80 + alcohol); 106 % of control (dose: 200.0 mg/kg/injection, schedule: Q01DX009 (ip), vehicle: other); 99 % of control (dose: 200.0 mg/kg/injection, schedule: Q01DX009 (ip), vehicle: saline + Tween-80 + alcohol).
Regarding `COc1cc([N+](=O)[O-])c2nc(Cl)ccc2c1[N+](=O)[O-]`, the T/C reads like this: (dose: 1.56 mg/kg/injection, schedule: Q01DX009 (ip), vehicle: other) 96 % of control; (dose: 3.13 mg/kg/injection, schedule: Q01DX009 (ip), vehicle: other) 97 % of control; (dose: 6.25 mg/kg/injection, schedule: Q01DX009 (ip), vehicle: other) 104 % of control; (dose: 12.5 mg/kg/injection, schedule: Q01DX009 (ip), vehicle: other) 94 % of control; under setting [3], 99 % of control.
On to `c1ccc2c(SCCCCCCCCCCCSc3c4ccccc4nc4ccccc34)c3ccccc3nc2c1`, for which the T/C under setting [4] was 106 % of control; the T/C under setting [5] is 101 % of control; the T/C (dose: 240.0 mg/kg/injection, schedule: Q01DX005 (ip), vehicle: Klucel (hydroxypropylcellulose) (HPC)) was 90 % of control.
As for `CC(=O)Nc1ccc(N=NN(C)Cc2ccccc2)cc1`, the T/C was 102 % of control (dose: 25.0 mg/kg/injection, schedule: Q01DX001 (ip), vehicle: Klucel (hydroxypropylcellulose) (HPC)) and 92 % of control (dose: 50.0 mg/kg/injection, schedule: Q01DX001 (ip), vehicle: Klucel (hydroxypropylcellulose) (HPC)).
With `CC(C)(C)OC(=O)NC(CCCCNC(=O)OCC1c2ccccc2-c2ccccc21)C(=O)O` (stereo not given), the T/C by setting is: under setting [6], 103 % of control; under setting [7], 99 % of control; (dose: 200.0 mg/kg/injection, schedule: Q01DX005 (ip), vehicle: Klucel (hydroxypropylcellulose) (HPC)) 103 % of control.
For the molecule `O=C(NN1C(=O)CSC1c1ccccc1F)c1ccncc1` (stereo not given), the T/C is 93 % of control under setting [8], 108 % of control under setting [9] and 97 % of control under setting [10].
Consider `COc1ccc(Cc2ccc3c(c2)OCO3)cc1C`, for which the T/C was 104 % of control under setting [11], 104 % of control under setting [12] and 111 % of control under setting [13].
Regarding `Cc1ccc(Sc2ccc3ccccc3n2)cc1`, the T/C by setting is: under setting [8], 90 % of control; under setting [9], 101 % of control; under setting [10], 104 % of control.
Turning to `S[C@@H]1CCCN1`, the T/C is, setting by setting: under setting [11], 97 % of control; under setting [12], 102 % of control; under setting [13], 99 % of control.
Take `COc1cc2c(cc1OC)C(=O)Cc1ccc(OC)c(O)c1CN(C)CC2`: the T/C by setting is: (dose: 2.25 mg/kg/injection, schedule: Q01DX009 (ip), vehicle: Klucel (hydroxypropylcellulose) (HPC)) 111 % of control; (dose: 4.5 mg/kg/injection, schedule: Q01DX009 (ip), vehicle: Klucel (hydroxypropylcellulose) (HPC)) 108 % of control; (dose: 9.0 mg/kg/injection, schedule: Q01DX009 (ip), vehicle: Klucel (hydroxypropylcellulose) (HPC)) 118 % of control; (dose: 18.0 mg/kg/injection, schedule: Q01DX009 (ip), vehicle: Klucel (hydroxypropylcellulose) (HPC)) 108 % of control.
For the molecule `CSc1c(C(=O)NC(C)C)cc(C(C)(C)C)cc1C(=O)NC(C)C`, the T/C runs as follows: under setting [14], 89 % of control; under setting [15], 86 % of control; under setting [16], 89 % of control.
Take `COc1ccc(N2C(=O)CC(c3cc(C)ccc3OC)CC2=O)cc1`: the T/C by setting is: (dose: 100.0 mg/kg/injection, schedule: Q01DX001 (ip), vehicle: saline) 98 % of control; (dose: 200.0 mg/kg/injection, schedule: Q01DX001 (ip), vehicle: saline) 98 % of control; (dose: 400.0 mg/kg/injection, schedule: Q01DX001 (ip), vehicle: saline) 91 % of control.
As for `CNC(=S)SC1=NS(=O)(=O)c2ccccc2N1`, the T/C is 111 % of control (dose: 30.0 mg/kg/injection, schedule: Q01DX005 (ip), vehicle: Klucel (hydroxypropylcellulose) (HPC)); 99 % of control and 110 % of control under setting [4]; 116 % of control and 117 % of control under setting [5].
As for `C[N+]1(C)CCC(=O)C(c2ccccc2)C1` (stereo not given), the T/C by setting is: under setting [1], 113 % of control; under setting [2], 113 % of control.
For `COC1CC(O)(CC#N)C(OC(=O)c2ccc([N+](=O)[O-])cc2)C(COC(=O)c2ccc([N+](=O)[O-])cc2)O1` (stereo not given), the T/C is, setting by setting: (dose: 100.0 mg/kg/injection, schedule: Q04DX003 (ip), vehicle: Klucel (hydroxypropylcellulose) (HPC)) 94 % of control; (dose: 200.0 mg/kg/injection, schedule: Q04DX003 (ip), vehicle: Klucel (hydroxypropylcellulose) (HPC)) 101 % of control; (dose: 400.0 mg/kg/injection, schedule: Q04DX003 (ip), vehicle: Klucel (hydroxypropylcellulose) (HPC)) 104 % of control.
Consider `O=C1C=CC(Nc2cc(Cl)ccc2Cl)C1Nc1cc(Cl)ccc1Cl` (stereo not given), for which the T/C reads like this: (dose: 1.88 mg/kg/injection, schedule: Q01DX005 (ip), vehicle: saline with Tween-80) 99 % of control; (dose: 3.75 mg/kg/injection, schedule: Q01DX005 (ip), vehicle: saline with Tween-80) 97 % of control; (dose: 7.5 mg/kg/injection, schedule: Q01DX005 (ip), vehicle: saline with Tween-80) 87 % of control and 93 % of control; (dose: 240.0 mg/kg/injection, schedule: Q01DX005 (ip), vehicle: saline with Tween-80) 86 % of control and 89 % of control.
As for `c1c[se]c(-c2nc3ccccc3[nH]2)c1`, the T/C is 99 % of control (dose: 12.5 mg/kg/injection, schedule: Q01DX005 (ip), vehicle: Klucel (hydroxypropylcellulose) (HPC)); 107 % of control (dose: 25.0 mg/kg/injection, schedule: Q01DX005 (ip), vehicle: Klucel (hydroxypropylcellulose) (HPC)); 110 % of control under setting [6]; 107 % of control under setting [7].
For `CSCCC(NC(=O)CN(C)C(=O)OCc1ccccc1)C(=O)O` (stereo not given), the T/C reads like this: under setting [8], 100 % of control; under setting [9], 100 % of control.
Regarding `CNC(=N)c1ccc(NC(=N)c2ccc(NC(=N)c3ccc(NC(=N)c4ccc(C(=N)NC)cc4)cc3)cc2)cc1`, the T/C is 154 % of control (dose: 9.0 mg/kg/injection, schedule: Q01DX009 (ip), vehicle: saline with Tween-80); 190 % of control (dose: 13.0 mg/kg/injection, schedule: Q01DX009 (ip), vehicle: saline with Tween-80); 254 % of control (dose: 20.0 mg/kg/injection, schedule: Q01DX009 (ip), vehicle: saline with Tween-80).
`Cc1ccc(NC(=O)Nc2nc3ccccc3s2)cc1NC(=O)Nc1nc2ccccc2s1`: the T/C under setting [14] is 110 % of control, the T/C under setting [15] was 102 % of control and the T/C under setting [16] was 109 % of control.
